Test results published in patent US5863889A, “ICAM-1/LFA-1 short-chain peptides and method of using same” (The University of Kansas, priority 1996, dated 1999).

Columns and labels:
Molt3 cells [1] = test: Homotypic adhesion assay (MDHC-induced clumping of T-cells); type: cell-based, human; conditions: 10 μM MDHC, listed as LJCRF-2
Molt3 cells [2] = test: as above; type: cell-based, human; design: key to Homotypic Adhesion Amount: Any sample having a score of "+++" or "++++" is considered to have a significant ability to modulate T-cell binding interaction; Any sample having a score of "+++" or "++++" is considered to have a significant ability to modulate T-cell binding interaction; conditions: 10 μM MDHC
Procedure: As before, the T-cells were Molt3 cells prepared in RPMI 1640 growth medium according to Example 2. An approximate 7 ml aliquot of the growth medium was centrifuged (Jouan Model GT422 at 1400 rpm for 6.5 minutes), and the supernatant fluid was decanted. The pellet was resuspended in the supernatant fluid at titer of about 1×10^6 cells/ml, with the excess supernatant fluid being retained for future resuspension of the peptides.
A 228 nmol quantity of the LJCRF-1 (Sequence ID No. 6) peptide described in Table 1 was diluted with the supernatant fluid to a 500 μl final volume, and filtered in microcentrifuge filter tubes (0.22 micron filter; 3500 rpm for 6 minutes). Serial dilution of the filtered peptide with supernatant fluid was conducted to yield five 125 μl peptide solutions to give respective concentrations of about 115 μM, 230 μM, 460 μM, 910 μM, and 1.82 mM. At each concentration, a 125 μl portion of the cell suspension was pipetted into each 125 μl portion of the peptide solutions to yield combined samples having a 250 μl volume. The 250 μl samples were seeded into individual wells in a 48-well tissue culture grade plate (from Costar of Cambridge, Md.) and incubated at 37° C. for 30 minutes. Each sample received 5 μl of 2,5-methyl dihydroxy cinnamate ("MDHC") for a 10 μM final concentration, and was subsequently incubated for about 10 hours at 37° C. MDHC induces intercellular clumping of human T-cells (Tibbetts, Butler, and Benedict, submitted) by activating the LFA/ICAM binding interaction between respective cells.
Pictures were taken of five random fields per sample using an Olympus photomicroscope having a 0.8 mm field at 400×magnification, and a 3.2 mm field of view at 100×magnification. The amount of clumping observed was quantified by determining the mean number of clumps per field ± a standard error.
FIGS. 5, 6, and 7 replicate photographs taken from exemplary peptide assays. FIG. 5 is a photograph of the control sample having no peptides and no MDHC added, from which essentially no clumping of cells is observed. […] Any sample having a score of "+++" or "++++" is considered to have a significant ability to modulate T-cell binding interaction. This is similar to results obtained by incubating similarly treated cells with antibody against either LFA or ICAM.
The homotypic adhesion assay assesses the actual ability of a candidate peptide to modulate the ability of T-cells to adhere with one another.

Molt3 cells [3] = test: Cell metabolic assay (MTT); type: cell-based
Procedure: After taking the photographs in Example 3 (and in some instances no photographs were taken), cell metabolic activity was assessed by an MTT assay. A 37.5 μl portion of MTT dye (purchased from SIGMA of St. Louis, Mo.), i.e., 3-[4,5-dimethyl thiazole-2yl]-2, 5- diphenyl tetrazolium bromide; thiazolyl blue) was added to each well, and incubated with the cells at 37° C. for about six hours. After incubation, a 250 μl quantity of a MTT solubilization solution (of a type that may be purchased from either Fischer Scientific of St. Louis, Mo. or BCD Labs of Lawrence, Kans.) was added to each well, and incubated with the cells at room temperature overnight. In the morning, the spectrophotometric absorption of each plate was determined at 570 nm in a microplate ELISA reader manufactured by Cambridge Technologies of Water-town, Mass., in order to assess cell viability as an indicator of potential peptide toxicity.

LFA-1 (CD11a) = target: T1, LFA-1 (CD11a) (Homo sapiens, UniProt P20701); test: Antibody binding assay (FACS): anti-LFA-1 mAb (mouse IgG anti-human CD11a) binding to Molt3 T-cells after peptide incubation; type: cell-based; conditions: for Fluorescence, % change from control of the medium fluorescence intensity: mAb CD11a, average ± standard error of runs
T1 construct: host or cells: Molt3 human T-cell leukemia line
T1 sequence (P20701 26-1170): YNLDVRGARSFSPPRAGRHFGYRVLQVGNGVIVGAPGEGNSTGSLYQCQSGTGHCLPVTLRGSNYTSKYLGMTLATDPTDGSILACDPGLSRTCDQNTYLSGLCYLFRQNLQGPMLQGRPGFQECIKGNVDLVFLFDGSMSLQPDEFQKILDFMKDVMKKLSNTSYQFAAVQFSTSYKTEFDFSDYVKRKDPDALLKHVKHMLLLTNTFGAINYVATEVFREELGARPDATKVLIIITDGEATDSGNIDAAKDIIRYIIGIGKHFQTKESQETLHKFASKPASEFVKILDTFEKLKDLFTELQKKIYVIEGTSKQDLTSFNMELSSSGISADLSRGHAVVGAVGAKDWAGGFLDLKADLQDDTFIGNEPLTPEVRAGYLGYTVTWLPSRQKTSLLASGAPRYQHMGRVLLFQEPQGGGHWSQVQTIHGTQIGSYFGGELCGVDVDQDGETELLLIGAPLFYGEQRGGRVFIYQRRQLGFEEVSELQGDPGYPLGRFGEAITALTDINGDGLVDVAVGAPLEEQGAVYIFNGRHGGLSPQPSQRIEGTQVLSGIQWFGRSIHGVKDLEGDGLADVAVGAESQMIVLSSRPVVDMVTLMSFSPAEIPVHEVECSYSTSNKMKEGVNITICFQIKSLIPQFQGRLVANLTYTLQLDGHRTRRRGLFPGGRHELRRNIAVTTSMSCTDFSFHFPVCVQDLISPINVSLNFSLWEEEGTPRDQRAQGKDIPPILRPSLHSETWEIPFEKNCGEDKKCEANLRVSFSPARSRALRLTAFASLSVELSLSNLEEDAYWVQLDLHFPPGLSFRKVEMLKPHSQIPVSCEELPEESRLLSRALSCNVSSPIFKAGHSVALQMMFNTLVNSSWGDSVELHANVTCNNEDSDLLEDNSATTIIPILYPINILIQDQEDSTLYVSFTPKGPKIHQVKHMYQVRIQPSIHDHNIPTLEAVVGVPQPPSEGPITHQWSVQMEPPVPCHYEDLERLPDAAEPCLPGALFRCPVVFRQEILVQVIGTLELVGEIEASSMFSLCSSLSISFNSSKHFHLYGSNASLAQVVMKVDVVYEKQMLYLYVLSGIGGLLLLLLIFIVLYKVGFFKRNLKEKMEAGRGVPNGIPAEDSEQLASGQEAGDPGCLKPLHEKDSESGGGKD
T1 sequence (P05107 23-769 partner): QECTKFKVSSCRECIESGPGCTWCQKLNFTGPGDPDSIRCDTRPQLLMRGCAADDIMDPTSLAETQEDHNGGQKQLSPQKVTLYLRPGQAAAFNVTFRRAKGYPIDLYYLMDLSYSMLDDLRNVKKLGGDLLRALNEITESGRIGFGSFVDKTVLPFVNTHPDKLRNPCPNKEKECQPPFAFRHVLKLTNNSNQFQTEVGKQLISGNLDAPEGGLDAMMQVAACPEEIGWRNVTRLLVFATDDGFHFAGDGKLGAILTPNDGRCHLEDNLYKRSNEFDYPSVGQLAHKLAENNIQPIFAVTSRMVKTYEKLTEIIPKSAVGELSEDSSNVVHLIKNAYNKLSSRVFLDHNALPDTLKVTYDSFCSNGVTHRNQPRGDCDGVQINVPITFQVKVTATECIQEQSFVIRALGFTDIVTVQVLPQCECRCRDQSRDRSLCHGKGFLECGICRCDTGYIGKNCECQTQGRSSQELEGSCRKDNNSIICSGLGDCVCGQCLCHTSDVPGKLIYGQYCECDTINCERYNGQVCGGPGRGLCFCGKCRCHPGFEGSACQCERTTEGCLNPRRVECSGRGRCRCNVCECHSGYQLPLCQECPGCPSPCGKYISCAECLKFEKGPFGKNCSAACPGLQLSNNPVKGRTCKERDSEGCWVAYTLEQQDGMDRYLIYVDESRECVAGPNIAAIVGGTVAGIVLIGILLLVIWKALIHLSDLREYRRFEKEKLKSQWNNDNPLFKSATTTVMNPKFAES
Procedure: A 1 ml quantity of the Molt3 inoculum was warmed to 37° C. and transferred by pipette into about 25 ml of a growth culture medium including RPMI 1640 lymphocyte growth medium (Fisher Scientific of St. Louis, Miss.) mixed with 10% by volume fetal calf serum, 100 units/ml penicillin, 100 μg/ml streptomycin and 2 mM glutamine. The inoculated culture was incubated for three to four days at 37° C. under a normal atmosphere having about 5% CO2 added thereto. This culture was capable of being maintained indefinitely by siphoning away the top (non-cell containing) layer and adding 50 ml (or more) of growth culture medium at intervals of three to four days.
An aqueous buffer solution including Dulbecco's phosphate buffered saline and bovine serum albumin ("-PBS/BSA solution") was prepared for use, and included a mixture of 200 mg KH2 PO4, 1.15 g Na2 HPO4, 100 mg CaCl2, 200 mg KCl, 100 mg MgCl2.6H2 O, 8 g NaCl, with distilled water added to a final 1 liter volume at room temperature, thus, forming a "PBS" solution of pH 7.4 to which was added 0.5% by weight bovine serum albumin.
An aliquot of about 7 ml was removed from the incubated culture medium and subjected to washing with the PBS/BSA solution. The washing procedure was initiated by placing the aliquot in a centrifuge (Model GT422 from Jouan, distributed Piruscio & Assoc. of Manchester, Miss.) at 1400 rpm for 6.5 minutes to separate the cells from the growth medium. The supernatant fluid was decanted, a 5 ml portion of PBS/BSA solution was transferred by pipette into the pellet, and the mixture was again centrifuged as before. The resulting supernatant fluid was decanted and the cells from the pellet were resuspended in PBS/BSA solution at a titer of about 1×10^6 cells/ml. A 500 μl portion of the solution containing the resuspended cells was placed in a microcentrifuge (Marathon 13K/M from Fisher Scientific of St. Louis, Miss.) at 3500 rpm for six minutes, to provide a washed pellet.
[…] The cells were incubated with the peptide cocktail at 37° C. for 45 minutes.
After incubation with the peptide cocktail, several antibodies were successively mixed into the incubated solution. A 75 μl portion of anti-IgM solution (a mixture of 10 μl of goat anti-human IgM stock purchased from Jackson Immuno Research of Westgrove, Pa.; and 65 μl of PBS/BSA solution) was added to the peptide cocktail for blocking of nonspecific binding of the secondary antibody. The resulting mixture was incubated for 10 minutes on ice. About 0.1 μg of a primary antibody including mouse IgG anti-human CD11a (purified according to conventional protocols at the University of Kansas Department of Pharmacology and Toxicology from an American Type Culture hybridoma cell line having Catalogue Number HB-202) was next stirred into the mixture, which was then incubated for 30 minutes at room temperature. The incubated mixture was placed in a microcentrifuge at 3500 rpm for six minutes to remove the cells from the mixture, and the cell pellet was washed two times by adding 500 μl aliquots of PBS/BSA solution and microfuging to remove non-bound antibodies from the cells as before. The resulting washed pellet was resuspended in 100 μl of a secondary antibody cocktail including 5 μl of fluorescein isothiocyanate ("FITC") labeled goat anti-mouse IgG (from CALTAG of South San Francisco, Calif.) and 95 μl of PBS/BSA solution. The resulting solution was incubated for 30 minutes at room temperature in the dark.
The incubated solution including the secondary antibody cocktail was microfuged at 3500 rpm for six minutes to remove the cells from the solution, and the cell pellet was washed two times with 500 μl portions of PBS/BSA solution, as before, to remove unbound antibodies. […]

## SC-3-152: ICAM-derived short-chain peptide, Sequence ID No. 11; modulator peptide (DQPKLLGIETPLPKKELLLPGNNRK)
Molt3 cells [1]; peptide 460 μM
  Homotypic Adhesion Effect: binding enhancers
Molt3 cells [1]; peptide 910 μM
  Homotypic Adhesion Effect: blockers of intercellular adhesion
Molt3 cells [2]; peptide 230 μM
  Homotypic Adhesion Amount: +++
  Homotypic Adhesion Effect: Enhance
Molt3 cells [2]; peptide 460 μM
  Homotypic Adhesion Effect: Enhance
Molt3 cells [2]; peptide 910 μM
  Homotypic Adhesion Amount: +++
  Homotypic Adhesion Effect: Block
Molt3 cells [2]; peptide 1820 μM
  Homotypic Adhesion Amount: ++++
  Homotypic Adhesion Effect: Block
Molt3 cells [3]; concentration not given
  MTT % Viability: 38%
Molt3 cells [3]; peptide 230 μM
  MTT % Viability: 38%
Molt3 cells [3]; peptide 460 μM
  MTT % Viability: 38%
Molt3 cells [3]; peptide 910 μM
  MTT % Viability: 38%
Molt3 cells [3]; peptide 1820 μM
  MTT % Viability: 43%
LFA-1 (CD11a); peptide 2275 μM
  Fluorescence, % change from control of the medium fluorescence intensity: +48 ± 8%
  effect on antibody binding: enhance such binding
LFA-1 (CD11a); peptide 4550 μM, negative = blocking
  Fluorescence, % change from control of the medium fluorescence intensity: -43 ± 7%
LFA-1 (CD11a); peptide 4550 μM
  effect on antibody binding: block antibody binding
